In article PMC7155171, “Probing the Open Global Health Chemical Diversity Library for Multistage-Active Starting Points for Next-Generation Antimalarials” (ACS Infectious Diseases, 2020):
Read-outs that look alike come from different tables or passages of the source.

Key:
[1] = HepG2 cytotoxicity screening (CellTiter-Glo); details: human, uninfected HepG2-A16-CD81 (EGFP) hepatocytes
P. falciparum Dd2 = test: SYBR green I asexual blood stage proliferation assay (96 h); type: cell-based, Plasmodium falciparum; details: Plasmodium falciparum, DD2, 11-pt dose response, 96hr
[2] = system: P. berghei liver stage (PbLuc); test: P. berghei luciferase liver stage (PbLuc) assay in HepG2-A16-CD81 hepatocytes; type: cell-based, Plasmodium berghei
[3] = system: P. falciparum Dd2 (PfLuc) line expressing firefly luciferase, asexual blood stage; test: microbe, parasite or virus in culture; type: cell-based, Plasmodium falciparum; details: Plasmodium falciparum

| Structure (SMILES) | inhibition at 2 µM [1] | other results |
| --- | --- | --- |
| COCCCC(=O)Nc1cc(Cl)c(Cl)cn1 [UCSD-0809266] | 59.5% | – |
| CCS(=O)(=O)NCC1OCCc2cn(CC3CCOCC3)nc21 (stereo not shown) [UCSD-0791354] | -4.05% | – |
| COc1cccc(-n2nnc(C(=O)N3CCN(C)CC3C)c2C)c1 (stereo not shown) [UCSD-0845525] | 69.9% | – |
| COc1cccc(CN2CCCC2c2ccc[nH]2)c1 (stereo not shown) [UCSD-0808841] | -1.63% | – |
| CCc1cnc(N)nc1NC(C)c1ccc(C)c(C)c1 (stereo not shown) [DDD01250400] | – | IC50 (P. falciparum Dd2; read-out: P. falciparum Sybr Green I ABS 11-pt Reconfirmation Dose Response (96hr): IC50): 4480 nM; Emax (P. falciparum Dd2; read-out: P. falciparum Sybr Green I ABS 11-pt Reconfirmation Dose Response (96hr): Maximum inhibition (%)): 62.1%; confirmed liver stage activity [2]: confirmed liver stage activity; IC50 ([3]; DD2, read-out: P. falciparum Luciferase ABS 11-pt Reconfirmation Dose Response (48hr): IC50, 11-pt dose response, 48hr): 2840 nM; IC50 ([3]; DD2, 8-pt dose response, 96hr, read-out: P. falciparum Luciferase ABS 8-pt Reconfirmation Dose Response (96hr): IC50): 1660 nM; Emax ([3]; DD2, 8-pt dose response, 96hr, read-out: P. falciparum Luciferase ABS 8-pt Reconfirmation Dose Response (96hr): Maximum inhibition (%)): 81%; Emax ([3]; DD2, 11-pt dose response, 48hr, read-out: P. falciparum Luciferase ABS 11-pt Reconfirmation Dose Response (48hr): Maximum inhibition (%)): 94.8%; IC50 ([3]; DD2, 11-pt dose response, 96hr, read-out: P. falciparum Luciferase ABS 11-pt Reconfirmation Dose Response (96hr): IC50): 373 nM; Emax ([3]; DD2, 11-pt dose response, 96hr, read-out: P. falciparum Luciferase ABS 11-pt Reconfirmation Dose Response (96hr): Maximum inhibition (%)): 99.6% |
| Cc1cc(C)cc(CN2CCN(Cc3cccc(CCN)c3)CC2=O)c1 [UCSD-0834514] | -1.16% | – |
| CCc1nnc2n1CCN(c1nc(C)cc(N(C)C)n1)C2 [UCSD-0803797] | 5.32% | – |
| O=C1N(CC2CC2)CCCC1(O)CN1CCc2[nH]ncc2C1 (stereo not shown) [UCSD-0829471] | 2.23% | – |
| Cc1cc(C)c(CCNC(=O)CN2CCCN(C(N)=O)CC2)c(C)c1 [UCSD-0809576] | -4.31% | – |
| c1ccc(OC2COC3(CCN(Cc4ccccn4)CC3)C2)cc1 (stereo not shown) [UCSD-0822599] | 16.7% | – |
| CCS(=O)(=O)N(C)c1ccc(C(=O)N2CCCC(C)C2)cc1 (stereo not shown) [UCSD-0838984] | 8.06% | – |
| Cn1cnnc1S(=O)(=O)C1CCN(S(=O)(=O)c2ccc(F)c(Cl)c2)CC1 [UCSD-0795178] | 2.47% | – |
| CC(C)NC(=O)CNC(=O)C12CCC(=O)N1c1cc(Cl)ccc1S2 (stereo not shown) [UCSD-0589377] | 3.84% | – |
| COc1ccc(C(=O)C2CCCN(c3cc(OC)ncn3)C2)c(C)c1 (stereo not shown) [UCSD-0833269] | 27.4% | – |
| CCn1nc(C)c2c1cnn2CCNS(=O)(=O)c1cccs1 [UCSD-0797219] | -1.63% | – |
| CN1CCC(N(C)CCC(=O)N2CCC(CCc3ccccc3)CC2)C1 (stereo not shown) [UCSD-0826822] | 18.9% | – |
| Nc1cc(N2CCC(c3cc(Cc4ccccc4)n[nH]3)CC2)ccn1 [UCSD-0836781] | -2.51% | – |
| CC(C)n1cnnc1C1CCCN(S(=O)(=O)CC2CCCC2)C1 (stereo not shown) [UCSD-0815907] | 27.3% | – |
| Cc1cc(Br)cnc1NCCN1CCC(N(C)C)CC1 [UCSD-0818517] | 4.34% | – |
| CCCNc1cc(-c2c[nH]nc2C2CCN(C(=O)C3CCC3)C2)ccn1 (stereo not shown) [UCSD-0798526] | 83.5% | – |
